Measurements as given in patent publication US10959968B2, “Methods for treating c-Met-dependent cancers” (Board of Supervisors of Louisiana State University and …, priority 2016, dated 2021).
Entries after “also recorded” stand apart in the source; their conditions may differ.

Key:
[1] = test system: MDA-MB-231/GFP human breast cancer cells; test: Orthotopic breast cancer xenograft in athymic nude mice; assay type: in vivo; settings: 10 mg/kg ip, 3×/week; end of study
[2] = test system: non-tumorigenic human MCF10A mammary epithelial cells; test: Viability of non-tumorigenic mammary epithelial cells; assay type: cell-based; settings: similar treatment doses; 24 h
[3] = test system: MDA-MB-231, MDA-MB-468, MCF-7 and BT-474 cells; test: Growth of breast cancer cells without HGF, MTT assay; assay type: cell-based, human; settings: similar treatment doses; no HGF
Experimental: (§1) FIG. 3. (A) Effect of HVS treatment on HGF-stimulated growth of Met-dependent MDA-MB-231, MDA-MB-468, MCF-7. and BT-474 breast cancer cells after 72 h treatment period, compared to DMSO as vehicle control. Viable cell count was determined using MTT assay. Vertical bars indicate the mean cell count±SEM of N=3 in each treatment group; (−)-oleocanthal was used as a positive control at 20 μM. (B) Effect of HVS treatment on HGF-stimulated growth of Met-independent T-47D breast cancer cells after 72 h treatment period. Viable cell count was determined using MTT assay. Vertical bars indicate the mean cell count±SEM of N=3 in each treatment group. (C) Cytotoxic effects of HVS on the highly metastatic MDA-MB-231 breast cancer cells at two different concentrations (30 and 60 μM) using LDH cytotoxicity assay. Triton X-100 was used as a positive control to cause the breakdown of all the cells and induce the total possible LDH release. (D) Effects of HVS treatment on the viability of non-tumorigenic human MCF10A mammary epithelial cells after a 24 h treatment period, compared to DMSO as vehicle control. (E) As in panel (A) but without HGF. […] Viable cell count was determined using MTT assay. Vertical bars indicate the mean cell count±SEM of N=3 in each treatment group; doxorubicin was used as a positive control at 10 μM dose. *P<0.05 as compared with vehicle treated control.
[…]. […]

[4] = test system: MDA-MB-231 breast cancer cells; test: LDH cytotoxicity assay; assay type: cell-based, human; settings: MDA-MB-231 cells; 50 μM and 100 μM
Experimental: as §1, with “(C) Cytotoxic effects of HVS on the highly metastatic MDA-MB-231 breast cancer cells at two different concentrations (30 and 60 μM) using LDH cytotoxicity assay.” left out
[…]. Selection of the aforementioned breast cancer cells was based on their phenotypes. […]

[5] = test system: DU145 human prostate cancer cells; test: Cell scattering in 2D monolayer cultures; assay type: cell-based; settings: 16 h, listed as HVS
Experimental: (§2) FIG. 6. (A) Effect of HVS on HGF-induced migration of the highly metastatic MDA-MB-231 human breast cancer cells in wound healing assay. […] Vertical bars indicate the percentage of wound closure at 24 h after wounding, calculated relative to the wound distance at zero time±SEM of N=6 in each treatment group. SU11274 and (−)-oleocanthal were used as positive controls at 10 μM. Right panel represents photomicrographs of wound healing assay showing HVS treatment at three different concentrations (1.25, 2.5, and 5 μM) blocked the migration of MDA-MB-231 cells in response to HGF stimulation, as compared to DMSO as a vehicle control. (B) Effect of HVS on HGF-induced cell invasion of the highly aggressive MDA-MB-231 human breast cancer cells using Cultrex® BME cell invasion assay. The cells were treated with different concentrations of HVS for 24 h. Vertical bars indicate the percentage of cells invading the basement membrane at the end of treatment period±SEM of N=3 in each treatment group. (−)-Oleocanthal was used as a positive control at 20 μM dose.*P<0.05 as compared with vehicle-treated control. (C) Effect of HVS on HGF-induced scattering of the DU145 human prostate cancer cells in 2D monolayer cultures, compared to DMSO as vehicle control. Cells were treated with indicated concentrations of HVS for 30 minutes in serum-free media. […]

[6] = test system: MDA-MB-231 human breast cancer cells; test: Wound healing assay, HGF-induced migration; assay type: cell-based; settings: wound closure at 24 h
Experimental: as §2

[7] = target: MST1R (RON0 (Homo sapiens, UniProt Q04912)); test: SelectScreen Kinase Profiling; assay type: biochemical; settings: read-out: Mean inhibition at 10 μM of HVS (%)
[8] = target: ABL1 (Homo sapiens, UniProt P00519); test: SelectScreen Kinase Profiling; assay type: biochemical; settings: read-out: Mean inhibition at 10 μM of HVS (%)
ABL1, sequence (P00519 whole entry): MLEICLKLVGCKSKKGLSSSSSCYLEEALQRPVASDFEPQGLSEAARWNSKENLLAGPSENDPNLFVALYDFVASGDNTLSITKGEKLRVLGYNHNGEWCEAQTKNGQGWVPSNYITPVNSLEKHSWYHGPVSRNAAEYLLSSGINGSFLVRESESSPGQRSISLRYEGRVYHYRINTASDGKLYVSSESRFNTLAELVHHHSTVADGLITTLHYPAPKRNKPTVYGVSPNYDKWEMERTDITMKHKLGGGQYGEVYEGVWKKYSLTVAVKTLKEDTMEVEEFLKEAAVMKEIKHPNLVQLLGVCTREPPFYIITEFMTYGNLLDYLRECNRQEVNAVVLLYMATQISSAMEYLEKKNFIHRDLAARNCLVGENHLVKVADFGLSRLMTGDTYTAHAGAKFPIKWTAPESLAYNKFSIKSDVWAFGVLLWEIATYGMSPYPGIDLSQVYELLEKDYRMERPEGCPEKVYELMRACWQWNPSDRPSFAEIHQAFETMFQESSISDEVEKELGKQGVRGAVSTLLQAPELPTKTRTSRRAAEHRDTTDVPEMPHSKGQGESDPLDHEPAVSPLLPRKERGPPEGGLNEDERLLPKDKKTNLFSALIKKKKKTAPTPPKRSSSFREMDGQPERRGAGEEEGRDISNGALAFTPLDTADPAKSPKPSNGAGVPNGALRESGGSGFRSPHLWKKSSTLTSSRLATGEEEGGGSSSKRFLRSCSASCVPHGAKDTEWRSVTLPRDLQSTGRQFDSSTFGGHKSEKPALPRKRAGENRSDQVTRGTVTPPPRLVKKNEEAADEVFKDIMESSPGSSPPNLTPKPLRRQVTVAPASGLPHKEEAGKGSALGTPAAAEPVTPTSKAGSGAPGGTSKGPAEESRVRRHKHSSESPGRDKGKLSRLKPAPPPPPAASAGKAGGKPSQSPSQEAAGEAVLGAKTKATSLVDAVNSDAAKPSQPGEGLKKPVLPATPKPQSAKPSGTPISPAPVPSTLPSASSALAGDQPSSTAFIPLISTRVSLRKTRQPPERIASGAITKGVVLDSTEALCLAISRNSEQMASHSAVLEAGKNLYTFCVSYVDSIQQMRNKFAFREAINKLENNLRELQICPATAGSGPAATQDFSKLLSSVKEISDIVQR

MST1R (RON0, sequence (Q04912 25-1400): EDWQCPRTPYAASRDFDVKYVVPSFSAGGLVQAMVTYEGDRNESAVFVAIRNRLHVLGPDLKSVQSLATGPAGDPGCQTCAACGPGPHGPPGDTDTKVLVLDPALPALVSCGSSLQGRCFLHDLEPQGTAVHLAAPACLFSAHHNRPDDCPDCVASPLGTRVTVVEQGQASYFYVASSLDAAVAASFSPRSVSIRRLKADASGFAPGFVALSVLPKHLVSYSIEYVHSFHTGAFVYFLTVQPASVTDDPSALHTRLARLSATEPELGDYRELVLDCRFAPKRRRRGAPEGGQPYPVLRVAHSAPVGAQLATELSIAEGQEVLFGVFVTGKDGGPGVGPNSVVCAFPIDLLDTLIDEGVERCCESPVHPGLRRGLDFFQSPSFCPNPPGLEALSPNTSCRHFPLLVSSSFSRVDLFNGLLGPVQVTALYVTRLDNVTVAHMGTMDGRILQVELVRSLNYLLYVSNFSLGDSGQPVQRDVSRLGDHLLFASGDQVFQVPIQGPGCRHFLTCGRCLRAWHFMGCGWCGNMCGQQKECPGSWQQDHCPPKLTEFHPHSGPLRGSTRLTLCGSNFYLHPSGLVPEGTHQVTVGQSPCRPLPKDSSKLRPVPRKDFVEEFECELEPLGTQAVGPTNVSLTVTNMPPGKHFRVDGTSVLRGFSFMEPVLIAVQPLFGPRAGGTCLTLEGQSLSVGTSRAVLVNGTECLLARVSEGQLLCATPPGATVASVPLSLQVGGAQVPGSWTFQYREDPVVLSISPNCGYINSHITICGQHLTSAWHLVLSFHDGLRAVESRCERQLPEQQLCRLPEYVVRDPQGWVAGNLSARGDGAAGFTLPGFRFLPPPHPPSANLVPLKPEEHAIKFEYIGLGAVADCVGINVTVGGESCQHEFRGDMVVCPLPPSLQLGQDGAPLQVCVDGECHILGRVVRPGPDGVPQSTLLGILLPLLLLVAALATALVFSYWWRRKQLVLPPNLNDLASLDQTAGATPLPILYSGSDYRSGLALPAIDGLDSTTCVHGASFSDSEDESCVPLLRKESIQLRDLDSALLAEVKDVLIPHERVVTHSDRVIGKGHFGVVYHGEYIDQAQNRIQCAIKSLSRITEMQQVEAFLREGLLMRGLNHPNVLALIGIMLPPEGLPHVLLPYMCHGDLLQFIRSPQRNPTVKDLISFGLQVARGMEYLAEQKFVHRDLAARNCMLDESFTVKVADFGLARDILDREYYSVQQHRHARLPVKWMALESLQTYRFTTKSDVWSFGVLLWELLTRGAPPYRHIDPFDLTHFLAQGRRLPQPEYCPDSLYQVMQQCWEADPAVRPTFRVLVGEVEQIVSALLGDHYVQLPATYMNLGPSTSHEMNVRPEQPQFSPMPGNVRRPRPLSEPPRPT

`COc1cc(CCOC(=O)/C=C/c2cc(OC)c(O)c(OC)c2)ccc1O` [Compound 8, (E)-4-hydroxy-3-methoxyph-ethyl 3-(4-hydroxy-3,5-dimethoxyphenyl) acrylate] was tested, and the “reduction in tumor growth vs vehicle-treated control” value [1] was 92%, the “effect on non-tumorigenic human MCF10A cells” value [2] was “no discernable effects” and the “effect on growth in the absence of HGF” value [3] was “no discernable effects”. The LDH release [4] was “minimal LDH release”, the HGF-induced cell scattering ([5]; 33 ng/mL HGF) was “significantly reduced; also recorded: appeared to block” and the EGF-induced cell scattering ([5]; 100 ng/mL EGF, similar treatment doses) was “do not block; also recorded: not inhibited”. The HGF-induced migration [6] was “appears to inhibit”, the inhibition at 10 µM [7] was 15% and the inhibition at 10 µM [8] was 79%.
